Results taken from US20250032651A1, “[177LU] LUTETIUM-PSMA I&T COMPOSITION AND DOSIMETRY, KIT, METHOD OF MAKING, AND METHOD OF USING THEREOF” (Curium US LLC, priority 2022, published 2025).
Values joined by “and” are separate entries in the source; they are usually repeats but may differ in a detail not shown here. Equal entries are not always repeated.

Assay: Plasma PK: gamma-counted plasma radioactivity, bi-exponential fit
Type: in vivo, human
Settings: plasma
Experimental: Additionally, for PK assessment, whole blood samples were collected at six timepoints (Pre-Infusion, 1 h, 4 h, 24 h, 48 h, and 168 h) and processed to extract plasma. All plasma samples were gamma counted locally for analysis of pharmacokinetics.
PK plasma samples were collected at pre-Infusion, 1 h, 4 h, 24 h, 48 h, and 168 h, and counted for radioactivity. Blood samples were first centrifuged to extract plasma, and then the radioactivity in plasma was counted in a gamma counter.
Whole blood samples were collected as detailed in the protocol Schedule of Events i.e. pre-injection, and then at 1 h, 4 h, 24 h, 48 h, and 168 h post-injection. The samples were first centrifuged to separate plasma, and the radioactivity in the plasma was then measured using a gamma counter. Plasma concentrations were subsequently fitted with a bi-exponential function to derive outcome parameters such as the half-life and clearance rate of the radiopharmaceutical in the plasma.

[1] = Cycle 3, individual patient values

## O=C([O-])CC[C@H](NC(=O)N[C@@H](CCCCNC(=O)CCCCCCC(=O)NCCCC[C@@H](NC(=O)[C@@H](Cc1ccccc1)NC(=O)[C@@H](Cc1ccc(O)c(I)c1)NC(=O)CC[C@H](C(=O)[O-])N1CCN(CC(=O)[O-])CCN(CC(=O)[O-])CCN(CC(=O)[O-])CC1)C(=O)[O-])C(=O)[O-])C(=O)[O-].[177Lu+3].[H+].[H+].[H+].[H+].[H+] [^177Lu-PSMA I&T, (3S,7S,26R,29R,32R,37R)-29-benzyl-32-(4-hydroxy-3-iodobenzyl)-5,13,20,28,31,34-hexaoxo-37-(4,7,10-tris(carboxymethyl)-1,4,7,10-tetraazacyclododecan-1-yl)-4,6,12,21,27,30,33-heptaazaheptatriacontane-1,3,7,26,37-pentacarboxylic acid; lutetium-177 (III)]
Cycle 1, min
  AUC Total: 3.07 fIA/L × min
  Clearance Rate: 2.89 L/h
  Peak Concentration Value: 0.01 fIA/L
  Time of Peak Concentration: 33.00 min
  Vc: 9.92 L
  Vd: 54.60 L
Cycle 3, Mean (n=15)
  AUC Total: 25.58 fIA/L × min
  Peak Concentration Value: 0.05 fIA/L
  Rate Clearance: 9.65 L/h
  Vc: 16.40 L
  Vd: 141.49 L
[1]
  AUC Total: 26.16 fIA/L x min and 29.32 fIA/L x min and 20.20 fIA/L x min (2×) and 36.74 fIA/L x min and 16.57 fIA/L x min and 19.01 fIA/L x min and 17.88 fIA/L x min and 23.21 fIA/L x min and 13.86 fIA/L x min and 24.55 fIA/L x min and 22.70 fIA/L x min and 39.62 fIA/L x min and 28.52 fIA/L x min and 36.09 fIA/L x min and 29.33 fIA/L x min
  Clearance Rate: 7.68 L/h and 6.78 L/h and 7.81 L/h and 4.95 L/h and 14.60 L/h and 18.27 L/h and 9.22 L/h and 8.52 L/h and 25.73 L/h and 11.43 L/h and 13.59 L/h and 3.34 L/h and 5.74 L/h and 3.01 L/h and 4.07 L/h
  Distribution Half-Life: 2.07 h and 1.69 h and 1.88 h and 2.30 h and 2.06 h and 1.64 h and 2.55 h and 2.28 h and 1.85 h and 2.11 h and 3.17 h and 2.61 h and 2.22 h
  Elimination Half-Life: 12.51 h and 11.70 h and 10.92 h and 9.33 h and 9.92 h and 8.16 h and 9.10 h and 9.11 h and 10.32 h and 9.75 h and 9.63 h and 10.67 h and 18.37 h and 14.16 h
  Peak Concentration Value: 0.04 fIA/L (7×) and 0.05 fIA/L (4×) and 0.06 fIA/L (2×) and 0.07 fIA/L and 0.03 fIA/L (2×)
  Time of Peak Concentration: 60.00 min (5×) and 68.00 min and 61.00 min (3×) and 66.00 min (2×) and 55.00 min (2×) and 65.00 min and 59.00 min (2×)
  Vc: 11.98 L and 11.38 L and 21.49 L (2×) and 10.66 L and 16.42 L and 16.53 L and 24.53 L and 17.80 L and 20.07 L and 13.50 L and 14.30 L and 15.13 L and 18.12 L and 16.40 L and 17.66 L
  Vd: 129.70 L and 106.80 L and 105.05 L and 70.92 L and 171.89 L and 239.78 L and 121.21 L and 126.73 L and 361.81 L and 158.71 L and 191.15 L and 51.46 L and 152.16 L and 61.59 L and 73.36 L
Cycle 3, individual patients
  AUC Total: 29.32 fIA/L × min and 20.20 fIA/L × min (2×) and 36.74 fIA/L × min and 16.57 fIA/L × min and 19.01 fIA/L × min and 17.88 fIA/L × min and 23.21 fIA/L × min and 13.86 fIA/L × min and 24.55 fIA/L × min and 22.70 fIA/L × min and 39.62 fIA/L × min and 28.52 fIA/L × min and 36.09 fIA/L × min and 29.33 fIA/L × min and 26.16 fIA/L × min
  Peak Concentration Value: 0.06 fIA/L (2×) and 0.04 fIA/L (7×) and 0.07 fIA/L and 0.03 fIA/L (2×) and 0.05 fIA/L (4×)
  Vc: 11.38 L and 21.49 L (2×) and 10.66 L and 16.42 L and 16.53 L and 24.53 L and 17.80 L and 20.07 L and 13.50 L and 14.30 L and 15.13 L and 18.12 L and 16.40 L and 17.66 L and 11.98 L
  Vd: 106.80 L and 105.05 L and 70.92 L and 171.89 L and 239.78 L and 121.21 L and 126.73 L and 361.81 L and 158.71 L and 191.15 L and 51.46 L and 152.16 L and 61.59 L and 73.36 L and 129.70 L
Cycle 3, max
  AUC Total: 39.62 fIA/L × min
  Peak Concentration Value: 0.07 fIA/L
  Rate Clearance: 25.73 L/h
  Vc: 24.53 L
  Vd: 361.81 L
Cycle 3, median
  AUC Total: 24.55 fIA/L × min
  Peak Concentration Value: 0.04 fIA/L
  Rate Clearance: 7.81 L/h
  Vc: 16.42 L
  Vd: 126.73 L
Cycle 3, min
  AUC Total: 13.86 fIA/L × min
  Peak Concentration Value: 0.03 fIA/L
  Rate Clearance: 3.01 L/h
  Vc: 10.66 L
  Vd: 51.46 L
Cycle 3, n = 15
  AUC Total, Mean: 25.58 fIA/L x min
  AUC Total, max: 39.62 fIA/L x min
  AUC Total, median: 24.55 fIA/L x min
  AUC Total, min: 13.86 fIA/L x min
  Clearance Rate, Mean: 9.65 L/h
  Clearance Rate, max: 25.73 L/h
  Clearance Rate, median: 7.81 L/h
  Clearance Rate, min: 3.01 L/h
  Distribution Half-Life, Mean: 2.17 h
  Distribution Half-Life, max: 3.17 h
  Distribution Half-Life, median: 2.07 h
  Distribution Half-Life, min: 1.64 h
  Elimination Half-Life, Mean: 10.89 h
  Elimination Half-Life, max: 18.37 h
  Elimination Half-Life, median: 9.92 h
  Elimination Half-Life, min: 8.16 h
  Peak Concentration Value, Mean: 0.05 fIA/L
  Peak Concentration Value, max: 0.07 fIA/L
  Peak Concentration Value, median: 0.04 fIA/L
  Peak Concentration Value, min: 0.03 fIA/L
  Time of Peak Concentration: 55.00 min
  Time of Peak Concentration, Mean: 60.67 min
  Time of Peak Concentration, max: 68.00 min
  Time of Peak Concentration, median: 60.00 min
  Vc, Mean: 16.40 L
  Vc, max: 24.53 L
  Vc, median: 16.42 L
  Vc, min: 10.66 L
  Vd, Mean: 141.49 L
  Vd, max: 361.81 L
  Vd, median: 126.73 L
  Vd, min: 51.46 L
